In the NIST ThermoML archive (doi:10.1021/je400205g):
± gives the expanded uncertainty stated by the source.

Conditions: Transpiration method

SMILES	vapor or sublimation pressure (309.15 K, Liquid) [kPa]	vapor or sublimation pressure (263.15 K, Liquid) [kPa]	vapor or sublimation pressure (278.15 K, Liquid) [kPa]	vapor or sublimation pressure (293.15 K, Liquid) [kPa]	vapor or sublimation pressure (308.15 K, Liquid) [kPa]	other results
C=CC(F)(F)C(F)(F)C(F)(F)C(F)(F)C(F)(F)C(F)(F)C(F)(F)C(F)(F)F	0.978 ± 0.039					vapor or sublimation pressure (254.15 K, Liquid): 0.01269 ± 0.00078 kPa; vapor or sublimation pressure (272.45 K, Liquid): 0.06823 ± 0.003 kPa; vapor or sublimation pressure (290.75 K, Liquid): 0.2843 ± 0.012 kPa
O=C(O)C(F)(F)OC(F)(F)C(F)(F)OC(F)(F)F		0.00451 ± 0.0011	0.02238 ± 0.0014	0.09288 ± 0.0041	0.3168 ± 0.013	
O=C(O)C(F)(F)C(F)(F)C(F)(F)C(F)(F)C(F)(F)F [2,2,3,3,4,4,5,5,6,6,6-undecafluorohexanoic acid]				0.044 ± 0.0022	0.1656 ± 0.0068	vapor or sublimation pressure (263.15 K, Crystal): 0.00126 ± 0.001 kPa; vapor or sublimation pressure (270.15 K, Crystal): 0.00294 ± 0.001 kPa; vapor or sublimation pressure (278.15 K, Crystal): 0.00791 ± 0.0011 kPa; vapor or sublimation pressure (283.15 K, Crystal): 0.0134 ± 0.0012 kPa; vapor or sublimation pressure (285.15 K, Crystal): 0.01726 ± 0.0014 kPa; vapor or sublimation pressure (290.15 K, Crystal): 0.03551 ± 0.0018 kPa; vapor or sublimation pressure (300.15 K, Liquid): 0.08434 ± 0.0037 kPa
OCCCC(F)(F)C(F)(F)C(F)(F)C(F)(F)F [4,4,5,5,6,6,7,7,7-nonafluoro-1-heptanol]	0.217 ± 0.0086			0.05717 ± 0.0027		vapor or sublimation pressure (255.65 K, Liquid): 0.00087 ± 8e-05 kPa; vapor or sublimation pressure (273.15 K, Liquid): 0.00765 ± 0.00033 kPa; vapor or sublimation pressure (282.45 K, Liquid): 0.02121 ± 0.00096 kPa
CCOC(=O)C(F)(F)C(F)(F)C(F)(F)C(F)(F)C(F)(F)C(F)(F)C(F)(F)F [ethyl perfluorooctanoate]		0.00516 ± 0.0011	0.02313 ± 0.0014	0.08988 ± 0.0038	0.2649 ± 0.011	
